Consider two compounds from patent publication US10912821B2, “Diketopiperazine salts for drug delivery and related methods” (MannKind Corporation, priority 2004, dated 2021).

The structures appear in SMILES notation. Values joined by “and” are separate entries in the source; they are usually repeats but may differ in a detail not shown here. Equal entries are not always repeated.

In series [1] the test system is cell membranes or tight junctions. Type of series: cell-based. From the text:
Diketopiperazine facilitate transcellular transport of biologically active agents across biological tissues however they are not penetration enhancers. Penetration enhancers are compounds that improve drug movement across biological tissues by disrupting cell membranes. Examples of penetration enhancers are surfactants and soaps. […] Diketopiperazine/insulin powder compositions are soluble at the physiological pH of the lung surface and dissolve rapidly after inhalation. Once dissolved, the DKP facilitates passive transcellular transport of the insulin.

Series [2] in a line: Laser diffraction particle size analysis. Type of series: physicochemical. An excerpt:
The microparticles described in Examples 6 and 7 were subjected to laser diffraction particle size analysis (SympatecGmbH, Germany) (FIGS. 1A and 1B).

On to `O=C(O)/C=C/C(=O)NCCCCC1NC(=O)C(CCCCNC(=O)/C=C/C(=O)O)NC1=O` (stereo not drawn) [FDKP, 3,6-di(fumaryl-4-aminobutyl)-2,5-diketopiperazine], for which, in series [1], the cell viability entry was “does not compromise cell viability” and the “disruption of cell membranes or tight junctions” value is “does not disrupt cell membranes or tight junctions”.

In the case of `O=C([O-])C=CC(=O)NCCCCC1NC(=O)C(CCCCNC(=O)C=CC(=O)[O-])NC1=O.[Na+].[Na+]` (stereo not drawn) [Preparation A], in series [2], the “Fine Particle Fraction (<5.8 μm)” value is 91.46% and 86.01%; the “Particle Size 0.5-5 μm” value was 87.91% and 80.13%; the “Particle Size <3 μm” value is 53.39% and 47.37%; the “VMD (volume median diameter)” value is 3.70 μm and 3.76 μm. Besides, in series [2], the X10 is 1.60 μm and 1.55 μm; the X16 was 1.44 μm and 1.36 μm; the X50 was 2.89 μm and 3.11 μm; the X84 was 4.60 μm and 5.53 μm. In addition, in series [2], the X90 is 5.47 μm and 6.64 μm; the X99 was 19.20 μm and 14.04 μm.
